Assay results taken from the NIST ThermoML archive (doi:10.1021/je034087q).
Numbers after ± are expanded uncertainties.

Experiment: xn = mol fraction of the nth substance listed

CC(C)=O [acetone] + O=C=O
Settings | mass density [kg/m3]
318.15 K, 8180 kPa, Fluid (supercritical or subcritical phases), x2 = 0.902 | 715 ± 4
318.15 K, 8410 kPa, Fluid (supercritical or subcritical phases), x2 = 0.902 | 722 ± 5
318.15 K, 8570 kPa, Fluid (supercritical or subcritical phases), x2 = 0.902 | 726 ± 5
318.15 K, 8810 kPa, Fluid (supercritical or subcritical phases), x2 = 0.902 | 732 ± 5
318.15 K, 8960 kPa, Fluid (supercritical or subcritical phases), x2 = 0.902 | 735 ± 5
318.15 K, 9180 kPa, Fluid (supercritical or subcritical phases), x2 = 0.902 | 738 ± 5
318.15 K, 9410 kPa, Fluid (supercritical or subcritical phases), x2 = 0.902 | 744 ± 5
318.15 K, 9570 kPa, Fluid (supercritical or subcritical phases), x2 = 0.902 | 746 ± 5
318.15 K, 9780 kPa, Fluid (supercritical or subcritical phases), x2 = 0.902 | 751 ± 5
318.15 K, 9900 kPa, Fluid (supercritical or subcritical phases), x2 = 0.902 | 754 ± 5
318.15 K, 10070 kPa, Fluid (supercritical or subcritical phases), x2 = 0.902 | 756 ± 5
318.15 K, 10330 kPa, Fluid (supercritical or subcritical phases), x2 = 0.902 | 757 ± 5
318.15 K, 10540 kPa, Fluid (supercritical or subcritical phases), x2 = 0.902 | 763 ± 5
318.15 K, 10770 kPa, Fluid (supercritical or subcritical phases), x2 = 0.902 | 766 ± 5
318.15 K, 10970 kPa, Fluid (supercritical or subcritical phases), x2 = 0.902 | 770 ± 5
318.15 K, 11190 kPa, Fluid (supercritical or subcritical phases), x2 = 0.902 | 774 ± 5
318.15 K, 11500 kPa, Fluid (supercritical or subcritical phases), x2 = 0.902 | 776 ± 5
318.15 K, 11830 kPa, Fluid (supercritical or subcritical phases), x2 = 0.902 | 781 ± 5
318.15 K, 12140 kPa, Fluid (supercritical or subcritical phases), x2 = 0.902 | 785 ± 5
318.15 K, 12450 kPa, Fluid (supercritical or subcritical phases), x2 = 0.902 | 789 ± 5
318.15 K, 12710 kPa, Fluid (supercritical or subcritical phases), x2 = 0.902 | 793 ± 5
318.15 K, 13050 kPa, Fluid (supercritical or subcritical phases), x2 = 0.902 | 795 ± 5
318.15 K, 13370 kPa, Fluid (supercritical or subcritical phases), x2 = 0.902 | 798 ± 5
318.15 K, 13700 kPa, Fluid (supercritical or subcritical phases), x2 = 0.902 | 803 ± 5
318.15 K, 14060 kPa, Fluid (supercritical or subcritical phases), x2 = 0.902 | 807 ± 5
318.15 K, 14370 kPa, Fluid (supercritical or subcritical phases), x2 = 0.902 | 809 ± 5
318.15 K, 14610 kPa, Fluid (supercritical or subcritical phases), x2 = 0.902 | 812 ± 5
318.15 K, 14870 kPa, Fluid (supercritical or subcritical phases), x2 = 0.902 | 815 ± 5
318.15 K, Liquid, Other PVT measurement, x2 = 0.902 | 709 ± 2
323.15 K, 1690 kPa, Fluid (supercritical or subcritical phases), x2 = 0.186 | 764 ± 5
323.15 K, 2050 kPa, Fluid (supercritical or subcritical phases), x2 = 0.186 | 767 ± 5
323.15 K, 2920 kPa, Fluid (supercritical or subcritical phases), x2 = 0.186 | 770 ± 5
323.15 K, 4190 kPa, Fluid (supercritical or subcritical phases), x2 = 0.383 | 789 ± 5
323.15 K, 4500 kPa, Fluid (supercritical or subcritical phases), x2 = 0.186 | 772 ± 5
323.15 K, 5090 kPa, Fluid (supercritical or subcritical phases), x2 = 0.576 | 798 ± 5
323.15 K, 5870 kPa, Fluid (supercritical or subcritical phases), x2 = 0.383 | 795 ± 5
323.15 K, 6050 kPa, Fluid (supercritical or subcritical phases), x2 = 0.186 | 775 ± 5
323.15 K, 6120 kPa, Fluid (supercritical or subcritical phases), x2 = 0.576 | 802 ± 5
323.15 K, 7330 kPa, Fluid (supercritical or subcritical phases), x2 = 0.186 | 777 ± 5
323.15 K, 7430 kPa, Fluid (supercritical or subcritical phases), x2 = 0.576 | 810 ± 5
323.15 K, 7470 kPa, Fluid (supercritical or subcritical phases), x2 = 0.772 | 783 ± 5
323.15 K, 7570 kPa, Fluid (supercritical or subcritical phases), x2 = 0.811 | 760 ± 5
323.15 K, 7780 kPa, Fluid (supercritical or subcritical phases), x2 = 0.811 | 764 ± 5
323.15 K, 7880 kPa, Fluid (supercritical or subcritical phases), x2 = 0.383 | 800 ± 5
323.15 K, 7930 kPa, Fluid (supercritical or subcritical phases), x2 = 0.772 | 787 ± 5
323.15 K, 7930 kPa, Fluid (supercritical or subcritical phases), x2 = 0.811 | 769 ± 5
323.15 K, 8250 kPa, Fluid (supercritical or subcritical phases), x2 = 0.882 | 703 ± 4
323.15 K, 8280 kPa, Fluid (supercritical or subcritical phases), x2 = 0.811 | 774 ± 5
323.15 K, 8420 kPa, Fluid (supercritical or subcritical phases), x2 = 0.772 | 792 ± 5
323.15 K, 8500 kPa, Fluid (supercritical or subcritical phases), x2 = 0.882 | 712 ± 4
323.15 K, 8620 kPa, Fluid (supercritical or subcritical phases), x2 = 0.811 | 778 ± 5
323.15 K, 8630 kPa, Fluid (supercritical or subcritical phases), x2 = 0.882 | 716 ± 4
323.15 K, 8710 kPa, Fluid (supercritical or subcritical phases), x2 = 0.186 | 781 ± 5
323.15 K, 8750 kPa, Fluid (supercritical or subcritical phases), x2 = 0.902 | 678 ± 4
323.15 K, 8790 kPa, Fluid (supercritical or subcritical phases), x2 = 0.882 | 719 ± 4
323.15 K, 8860 kPa, Fluid (supercritical or subcritical phases), x2 = 0.933 | 586 ± 4
323.15 K, 8880 kPa, Fluid (supercritical or subcritical phases), x2 = 0.933 | 590 ± 4
323.15 K, 8920 kPa, Fluid (supercritical or subcritical phases), x2 = 0.902 | 683 ± 4
323.15 K, 8930 kPa, Fluid (supercritical or subcritical phases), x2 = 0.882 | 721 ± 5
323.15 K, 8930 kPa, Fluid (supercritical or subcritical phases), x2 = 0.933 | 594 ± 4
323.15 K, 8960 kPa, Fluid (supercritical or subcritical phases), x2 = 0.576 | 813 ± 5
323.15 K, 8970 kPa, Fluid (supercritical or subcritical phases), x2 = 0.772 | 796 ± 5
323.15 K, 8980 kPa, Fluid (supercritical or subcritical phases), x2 = 0.952 | 495 ± 3
323.15 K, 8990 kPa, Fluid (supercritical or subcritical phases), x2 = 0.933 | 601 ± 4
323.15 K, 9000 kPa, Fluid (supercritical or subcritical phases), x2 = 0.948 | 540 ± 3
323.15 K, 9000 kPa, Fluid (supercritical or subcritical phases), x2 = 0.952 | 497 ± 3
323.15 K, 9020 kPa, Fluid (supercritical or subcritical phases), x2 = 0.902 | 687 ± 4
323.15 K, 9030 kPa, Fluid (supercritical or subcritical phases), x2 = 0.952 | 502 ± 3
323.15 K, 9040 kPa, Fluid (supercritical or subcritical phases), x2 = 0.933 | 606 ± 4
323.15 K, 9060 kPa, Fluid (supercritical or subcritical phases), x2 = 0.948 | 549 ± 3
323.15 K, 9060 kPa, Fluid (supercritical or subcritical phases), x2 = 0.952 | 505 ± 3
323.15 K, 9090 kPa, Fluid (supercritical or subcritical phases), x2 = 0.952 | 510 ± 3
323.15 K, 9100 kPa, Fluid (supercritical or subcritical phases), x2 = 0.933 | 613 ± 4
323.15 K, 9110 kPa, Fluid (supercritical or subcritical phases), x2 = 0.882 | 728 ± 5
323.15 K, 9120 kPa, Fluid (supercritical or subcritical phases), x2 = 0.948 | 559 ± 4
323.15 K, 9120 kPa, Fluid (supercritical or subcritical phases), x2 = 0.952 | 514 ± 3
323.15 K, 9140 kPa, Fluid (supercritical or subcritical phases), x2 = 0.952 | 519 ± 3
323.15 K, 9160 kPa, Fluid (supercritical or subcritical phases), x2 = 0.902 | 690 ± 4
323.15 K, 9170 kPa, Fluid (supercritical or subcritical phases), x2 = 0.952 | 523 ± 3
323.15 K, 9180 kPa, Fluid (supercritical or subcritical phases), x2 = 0.933 | 618 ± 4
323.15 K, 9190 kPa, Fluid (supercritical or subcritical phases), x2 = 0.952 | 527 ± 3
323.15 K, 9200 kPa, Fluid (supercritical or subcritical phases), x2 = 0.948 | 568 ± 4
323.15 K, 9220 kPa, Fluid (supercritical or subcritical phases), x2 = 0.952 | 531 ± 3
323.15 K, 9240 kPa, Fluid (supercritical or subcritical phases), x2 = 0.933 | 624 ± 4
323.15 K, 9250 kPa, Fluid (supercritical or subcritical phases), x2 = 0.952 | 537 ± 3
323.15 K, 9270 kPa, Fluid (supercritical or subcritical phases), x2 = 0.902 | 694 ± 4
323.15 K, 9290 kPa, Fluid (supercritical or subcritical phases), x2 = 0.952 | 541 ± 3
323.15 K, 9300 kPa, Fluid (supercritical or subcritical phases), x2 = 0.948 | 579 ± 4
323.15 K, 9320 kPa, Fluid (supercritical or subcritical phases), x2 = 0.952 | 546 ± 3
323.15 K, 9330 kPa, Fluid (supercritical or subcritical phases), x2 = 0.933 | 630 ± 4
323.15 K, 9350 kPa, Fluid (supercritical or subcritical phases), x2 = 0.811 | 787 ± 5
323.15 K, 9350 kPa, Fluid (supercritical or subcritical phases), x2 = 0.952 | 550 ± 3
323.15 K, 9380 kPa, Fluid (supercritical or subcritical phases), x2 = 0.882 | 732 ± 5
323.15 K, 9380 kPa, Fluid (supercritical or subcritical phases), x2 = 0.952 | 556 ± 3
323.15 K, 9400 kPa, Fluid (supercritical or subcritical phases), x2 = 0.902 | 699 ± 4
323.15 K, 9410 kPa, Fluid (supercritical or subcritical phases), x2 = 0.933 | 637 ± 4
323.15 K, 9410 kPa, Fluid (supercritical or subcritical phases), x2 = 0.948 | 590 ± 4
323.15 K, 9430 kPa, Fluid (supercritical or subcritical phases), x2 = 0.952 | 561 ± 4
323.15 K, 9450 kPa, Fluid (supercritical or subcritical phases), x2 = 0.772 | 798 ± 5
323.15 K, 9480 kPa, Fluid (supercritical or subcritical phases), x2 = 0.952 | 567 ± 4
323.15 K, 9520 kPa, Fluid (supercritical or subcritical phases), x2 = 0.902 | 702 ± 4
323.15 K, 9520 kPa, Fluid (supercritical or subcritical phases), x2 = 0.933 | 642 ± 4
323.15 K, 9520 kPa, Fluid (supercritical or subcritical phases), x2 = 0.952 | 571 ± 4
323.15 K, 9540 kPa, Fluid (supercritical or subcritical phases), x2 = 0.948 | 602 ± 4
323.15 K, 9560 kPa, Fluid (supercritical or subcritical phases), x2 = 0.383 | 803 ± 5
323.15 K, 9560 kPa, Fluid (supercritical or subcritical phases), x2 = 0.952 | 578 ± 4
323.15 K, 9620 kPa, Fluid (supercritical or subcritical phases), x2 = 0.952 | 582 ± 4
323.15 K, 9630 kPa, Fluid (supercritical or subcritical phases), x2 = 0.933 | 649 ± 4
323.15 K, 9650 kPa, Fluid (supercritical or subcritical phases), x2 = 0.882 | 736 ± 5
323.15 K, 9660 kPa, Fluid (supercritical or subcritical phases), x2 = 0.948 | 613 ± 4
